{"source": "paper PMC6100082", "about": "“Pyridine-Ureas as Potential Anticancer Agents: Synthesis and In Vitro Biological Evaluation” (Molecules : A Journal of Synthetic Chemistry and Natural …, 2018)", "assay_type_in_all_cases": "cell-based, human", "key": {"MCF7": {"system": "MCF7", "experiment": "NCI one-dose SRB assay (Breast Cancer)", "experimental": "(§1) The structures of all the newly prepared pyridine-ureas 8a–n were submitted to the National Cancer Institute (NCI) Developmental Therapeutic Program. Eight compounds 8b, 8d, 8e, 8i, 8j and 8l–n were selected to be examined for their in vitro growth inhibitory activity. The anticancer assays were carried out according to the protocol of the Drug Evaluation Branch, NCI, Bethesda. The selected pyridine-ureas were tested at one dose primary anticancer assay against a panel of approximately 58 cancer lines (concentration 10^−5 M). The tested human cancer cell lines emerged from nine different cancer subtypes: leukemia, colon, melanoma, ovarian, lung, CNS, renal, breast and prostate cancers. The sulforhodamine B (SRB) protein assay was adopted to estimate the cell viability and growth. The results were reported as mean-graph of the percentage growth of the treated cells, and presented as percentage growth inhibition (GI%) caused by the test compounds (Table 2).\n(§2) The anticancer assays were performed in accordance with the protocol of the Drug Evaluation Branch, NCI, Bethesda. A 48 h drug exposure protocol was used and sulforhodamine B (SRB) protein assay was applied to estimate the cell viability and growth, as reported earlier."}, "T-47D": {"system": "T-47D", "experiment": "NCI one-dose SRB assay (Breast Cancer)", "experimental": "as §1, §2"}, "MDA-MB-468": {"system": "MDA-MB-468", "experiment": "NCI one-dose SRB assay (Breast Cancer)", "experimental": "as §1, §2"}, "BT-549": {"system": "BT-549", "experiment": "NCI one-dose SRB assay (Breast Cancer)", "experimental": "as §1, §2"}, "MDA-MB-231": {"system": "MDA-MB-231", "experiment": "NCI one-dose SRB assay (Breast Cancer)", "experimental": "as §1, §2"}, "HS 578T": {"system": "HS 578T", "experiment": "NCI one-dose SRB assay (Breast Cancer)", "experimental": "as §1, §2"}, "SF-268": {"system": "SF-268", "experiment": "NCI one-dose SRB assay (CNS Cancer)", "experimental": "as §1, §2"}, "U251": {"system": "U251", "experiment": "NCI one-dose SRB assay (CNS Cancer)", "experimental": "as §1, §2"}, "SF-539": {"system": "SF-539", "experiment": "NCI one-dose SRB assay (CNS Cancer)", "experimental": "as §1, §2"}, "SF-295": {"system": "SF-295", "experiment": "NCI one-dose SRB assay (CNS Cancer)", "experimental": "as §1, §2"}, "SNB-75": {"system": "SNB-75", "experiment": "NCI one-dose SRB assay (CNS Cancer)", "experimental": "as §1, §2"}, "SNB-19": {"system": "SNB-19", "experiment": "NCI one-dose SRB assay (CNS Cancer)", "experimental": "as §1, §2"}, "SK-OV-3": {"system": "SK-OV-3", "experiment": "NCI one-dose SRB assay (Ovarian Cancer)", "experimental": "as §1, §2"}, "OVCAR-4": {"system": "OVCAR-4", "experiment": "NCI one-dose SRB assay (Ovarian Cancer)", "experimental": "as §1, §2"}, "NCI/ADR-RES": {"system": "NCI/ADR-RES", "experiment": "NCI one-dose SRB assay (Ovarian Cancer)", "experimental": "as §1, §2"}, "OVCAR-8": {"system": "OVCAR-8", "experiment": "NCI one-dose SRB assay (Ovarian Cancer)", "experimental": "as §1, §2"}, "OVCAR-3": {"system": "OVCAR-3", "experiment": "NCI one-dose SRB assay (Ovarian Cancer)", "experimental": "as §1, §2"}, "OVCAR-5": {"system": "OVCAR-5", "experiment": "NCI one-dose SRB assay (Ovarian Cancer)", "experimental": "as §1, §2"}, "IGROV1": {"system": "IGROV1", "experiment": "NCI one-dose SRB assay (Ovarian Cancer)", "experimental": "as §1, §2"}, "LOX IMVI": {"system": "LOX IMVI", "experiment": "NCI one-dose SRB assay (Melanoma)", "experimental": "as §1, §2"}, "SK-MEL-5": {"system": "SK-MEL-5", "experiment": "NCI one-dose SRB assay (Melanoma)", "experimental": "as §1, §2"}, "UACC-62": {"system": "UACC-62", "experiment": "NCI one-dose SRB assay (Melanoma)", "experimental": "as §1, §2"}, "MDA-MB-435": {"system": "MDA-MB-435", "experiment": "NCI one-dose SRB assay (Melanoma)", "experimental": "as §1, §2"}, "SK-MEL-2": {"system": "SK-MEL-2", "experiment": "NCI one-dose SRB assay (Melanoma)", "experimental": "as §1, §2"}, "MALME-3M": {"system": "MALME-3M", "experiment": "NCI one-dose SRB assay (Melanoma)", "experimental": "as §1, §2"}, "M14": {"system": "M14", "experiment": "NCI one-dose SRB assay (Melanoma)", "experimental": "as §1, §2"}, "[1]": {"conditions": "Homo sapiens, 10 μM, read-out: Percentage growth inhibition (GI%)"}}, "data": [{"smiles": "COc1ccc(-c2ccc(NC(=O)Nc3cccc(Cl)c3)c(C)n2)cc1OC", "note": "[Compound 8j, 1-(3-Chlorophenyl)-3-(6-(3,4-dimethoxyphenyl)-2-methylpyridin-3-yl) Urea]", "values": [{"measurement": "inhibition at 10 µM", "setting": "MCF7; Homo sapiens, MCF7, 10 μM, read-out: Percentage growth inhibition (GI%)", "value": 25, "unit": "%"}, {"measurement": "Growth Percent", "setting": "MCF7; MCF7, 1.00E-5 Molar", "value": 75.86, "unit": "%"}, {"measurement": "Growth Percent", "setting": "T-47D; 1.00E-5 Molar", "value": 49.90, "unit": "%"}, {"measurement": "inhibition at 10 µM", "setting": "T-47D; Homo sapiens, T47D, 10 μM, read-out: Percentage growth inhibition (GI%)", "value": 51, "unit": "%"}, {"measurement": "inhibition at 10 µM", "setting": "MDA-MB-468; Homo sapiens, MDA-MB-468, 10 μM, read-out: Percentage growth inhibition (GI%)", "value": 29, "unit": "%"}, {"measurement": "Growth Percent", "setting": "MDA-MB-468; MDA-MB-468, 1.00E-5 Molar", "value": 71.36, "unit": "%"}, {"measurement": "Growth Percent", "setting": "BT-549; BT-549, 1.00E-5 Molar", "value": 91.71, "unit": "%"}, {"measurement": "inhibition at 10 µM", "setting": "BT-549; Homo sapiens, BT-549, 10 μM, read-out: Percentage growth inhibition (GI%)", "value": "< 10", "unit": "%"}, {"measurement": "inhibition at 10 µM", "setting": "MDA-MB-231; Homo sapiens, MDA-MB-231, 10 μM, read-out: Percentage growth inhibition (GI%)", "value": 13, "unit": "%"}, {"measurement": "Growth Percent", "setting": "MDA-MB-231; MDA-MB-231/ATCC, 1.00E-5 Molar", "value": 87.05, "unit": "%"}, {"measurement": "Growth Percent", "setting": "HS 578T; 1.00E-5 Molar", "value": 95.46, "unit": "%"}, {"measurement": "inhibition at 10 µM", "setting": "HS 578T; [1]", "value": "< 10", "unit": "%"}, {"measurement": "inhibition at 10 µM", "setting": "SF-268; Homo sapiens, SF-268, 10 μM, read-out: Percentage growth inhibition (GI%)", "value": 13, "unit": "%"}, {"measurement": "Growth Percent", "setting": "SF-268; SF-268, 1.00E-5 Molar", "value": 87.00, "unit": "%"}, {"measurement": "inhibition at 10 µM", "setting": "U251; Homo sapiens, U-251, U251, 10 μM, read-out: Percentage growth inhibition (GI%)", "value": 17, "unit": "%"}, {"measurement": "Growth Percent", "setting": "U251; U251, 1.00E-5 Molar", "value": 83.31, "unit": "%"}, {"measurement": "inhibition at 10 µM", "setting": "SF-539; Homo sapiens, SF-539, 10 μM, read-out: Percentage growth inhibition (GI%)", "value": 11, "unit": "%"}, {"measurement": "Growth Percent", "setting": "SF-539; SF-539, 1.00E-5 Molar", "value": 89.70, "unit": "%"}, {"measurement": "inhibition at 10 µM", "setting": "SF-295; Homo sapiens, SF-295, 10 μM, read-out: Percentage growth inhibition (GI%)", "value": 17, "unit": "%"}, {"measurement": "Growth Percent", "setting": "SF-295; SF-295, 1.00E-5 Molar", "value": 83.73, "unit": "%"}, {"measurement": "inhibition at 10 µM", "setting": "SNB-75; Homo sapiens, SNB-75, 10 μM, read-out: Percentage growth inhibition (GI%)", "value": 16, "unit": "%"}, {"measurement": "Growth Percent", "setting": "SNB-75; SNB-75, 1.00E-5 Molar", "value": 84.12, "unit": "%"}, {"measurement": "inhibition at 10 µM", "setting": "SNB-19; Homo sapiens, SNB-19, 10 μM, read-out: Percentage growth inhibition (GI%)", "value": "< 10", "unit": "%"}, {"measurement": "Growth Percent", "setting": "SNB-19; SNB-19, 1.00E-5 Molar", "value": 97.00, "unit": "%"}, {"measurement": "inhibition at 10 µM", "setting": "SK-OV-3; Homo sapiens, SK-OV-3, 10 μM, read-out: Percentage growth inhibition (GI%)", "value": 17, "unit": "%"}, {"measurement": "Growth Percent", "setting": "SK-OV-3; SK-OV-3, 1.00E-5 Molar", "value": 83.62, "unit": "%"}, {"measurement": "inhibition at 10 µM", "setting": "OVCAR-4; Homo sapiens, OVCAR-4, 10 μM, read-out: Percentage growth inhibition (GI%)", "value": "< 10", "unit": "%"}, {"measurement": "Growth Percent", "setting": "OVCAR-4; OVCAR-4, 1.00E-5 Molar", "value": 91.75, "unit": "%"}, {"measurement": "Growth Percent", "setting": "NCI/ADR-RES; 1.00E-5 Molar", "value": 84.81, "unit": "%"}, {"measurement": "inhibition at 10 µM", "setting": "NCI/ADR-RES; [1]", "value": 16, "unit": "%"}, {"measurement": "inhibition at 10 µM", "setting": "OVCAR-8; Homo sapiens, OVCAR-8, 10 μM, read-out: Percentage growth inhibition (GI%)", "value": 10, "unit": "%"}, {"measurement": "Growth Percent", "setting": "OVCAR-8; OVCAR-8, 1.00E-5 Molar", "value": 90.16, "unit": "%"}, {"measurement": "inhibition at 10 µM", "setting": "OVCAR-3; Homo sapiens, OVCAR-3, 10 μM, read-out: Percentage growth inhibition (GI%)", "value": 10, "unit": "%"}, {"measurement": "Growth Percent", "setting": "OVCAR-3; OVCAR-3, 1.00E-5 Molar", "value": 90.37, "unit": "%"}, {"measurement": "inhibition at 10 µM", "setting": "OVCAR-5; Homo sapiens, OVCAR-5, 10 μM, read-out: Percentage growth inhibition (GI%)", "value": 12, "unit": "%"}, {"measurement": "Growth Percent", "setting": "OVCAR-5; OVCAR-5, 1.00E-5 Molar", "value": 88.21, "unit": "%"}, {"measurement": "inhibition at 10 µM", "setting": "IGROV1; Homo sapiens, IGROV-1, IGROV1, 10 μM, read-out: Percentage growth inhibition (GI%)", "value": "< 10", "unit": "%"}, {"measurement": "Growth Percent", "setting": "IGROV1; IGROV1, 1.00E-5 Molar", "value": 100.28, "unit": "%"}, {"measurement": "Growth Percent", "setting": "LOX IMVI; 1.00E-5 Molar", "value": 80.89, "unit": "%"}, {"measurement": "inhibition at 10 µM", "setting": "LOX IMVI; [1]", "value": 20, "unit": "%"}, {"measurement": "inhibition at 10 µM", "setting": "SK-MEL-5; Homo sapiens, SK-MEL-5, 10 μM, read-out: Percentage growth inhibition (GI%)", "value": 32, "unit": "%"}, {"measurement": "Growth Percent", "setting": "SK-MEL-5; SK-MEL-5, 1.00E-5 Molar", "value": 68.63, "unit": "%"}, {"measurement": "inhibition at 10 µM", "setting": "UACC-62; Homo sapiens, UACC-62, 10 μM, read-out: Percentage growth inhibition (GI%)", "value": 25, "unit": "%"}, {"measurement": "Growth Percent", "setting": "UACC-62; UACC-62, 1.00E-5 Molar", "value": 75.01, "unit": "%"}, {"measurement": "inhibition at 10 µM", "setting": "MDA-MB-435; Homo sapiens, MDA-MB-435, 10 μM, read-out: Percentage growth inhibition (GI%)", "value": 13, "unit": "%"}, {"measurement": "Growth Percent", "setting": "MDA-MB-435; MDA-MB-435, 1.00E-5 Molar", "value": 87.66, "unit": "%"}, {"measurement": "inhibition at 10 µM", "setting": "SK-MEL-2; Homo sapiens, SK-MEL-2, 10 μM, read-out: Percentage growth inhibition (GI%)", "value": 16, "unit": "%"}, {"measurement": "Growth Percent", "setting": "SK-MEL-2; SK-MEL-2, 1.00E-5 Molar", "value": 84.73, "unit": "%"}, {"measurement": "Growth Percent", "setting": "MALME-3M; 1.00E-5 Molar", "value": 98.93, "unit": "%"}, {"measurement": "inhibition at 10 µM", "setting": "MALME-3M; [1]", "value": "< 10", "unit": "%"}, {"measurement": "inhibition at 10 µM", "setting": "M14; Homo sapiens, M14, 10 μM, read-out: Percentage growth inhibition (GI%)", "value": 50, "unit": "%"}, {"measurement": "Growth Percent", "setting": "M14; M14, 1.00E-5 Molar", "value": 50.80, "unit": "%"}]}]}
